The nature of data set [1]: Ratio of drug level in brain to plasma of Sprague-Dawley rat at 10 mg/kg, po after 2 hrs. The format is ADME, organism-based. Set-up: dose 10 mg/kg, route oral. As to conditions: read-out: BPR.
The target in data set [2] is T1, Muscarinic acetylcholine receptor M4 (Homo sapiens) (UniProt P08173).
T1 sequence (whole entry): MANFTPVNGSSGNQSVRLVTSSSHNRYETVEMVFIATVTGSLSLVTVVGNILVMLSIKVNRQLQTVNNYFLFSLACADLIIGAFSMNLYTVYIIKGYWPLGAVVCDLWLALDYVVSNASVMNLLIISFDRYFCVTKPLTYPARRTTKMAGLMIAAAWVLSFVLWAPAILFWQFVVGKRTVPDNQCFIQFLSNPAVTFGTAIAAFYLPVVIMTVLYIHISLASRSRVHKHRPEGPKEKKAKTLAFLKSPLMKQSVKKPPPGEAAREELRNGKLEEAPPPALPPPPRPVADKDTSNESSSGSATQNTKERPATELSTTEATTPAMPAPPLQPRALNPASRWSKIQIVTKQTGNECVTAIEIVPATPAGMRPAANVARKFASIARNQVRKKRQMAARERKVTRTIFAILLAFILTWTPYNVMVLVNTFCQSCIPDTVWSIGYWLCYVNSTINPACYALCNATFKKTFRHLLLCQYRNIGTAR
Briefly: Activity at muscarinic M4 receptor expressing in CHONFAT cells assessed as potentiation of acetylcholine-induced calcium mobilization preincubated for 4 mins and measured 4 mins after acetylcholine stimulation by FLIPR assay. The class given is functional, cell-based. On the technique in general: A change in cytosolic calcium serves as a functional read-out for many receptors and channels.

The nature of data set [3]: Protein binding in human plasma. The format is ADME, cell-free. As to conditions: read-out: PPB (converted).
Data set [4] concerns the target T2, Muscarinic acetylcholine receptor M1 (Homo sapiens) (UniProt P11229).
T2 sequence (whole entry): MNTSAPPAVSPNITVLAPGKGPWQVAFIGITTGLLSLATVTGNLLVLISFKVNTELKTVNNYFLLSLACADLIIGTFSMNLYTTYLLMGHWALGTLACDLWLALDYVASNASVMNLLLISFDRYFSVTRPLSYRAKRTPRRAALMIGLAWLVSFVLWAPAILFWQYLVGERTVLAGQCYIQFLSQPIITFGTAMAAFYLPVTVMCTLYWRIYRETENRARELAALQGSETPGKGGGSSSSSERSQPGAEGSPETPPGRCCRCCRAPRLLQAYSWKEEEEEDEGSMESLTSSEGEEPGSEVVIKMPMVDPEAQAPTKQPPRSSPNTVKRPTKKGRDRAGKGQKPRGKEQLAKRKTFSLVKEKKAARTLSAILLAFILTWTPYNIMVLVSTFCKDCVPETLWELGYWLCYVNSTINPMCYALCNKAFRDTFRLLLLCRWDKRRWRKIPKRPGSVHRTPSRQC
The data set is described as follows: Positive allosteric modulation of human muscarinic M1 receptor expressing in CHONFAT cells assessed as potentiation of acetylcholine-induced calcium mobilization preincubated for 4 mins and measured 4 mins after acetylcholine stimulation by FLIPR assay. The format is functional, cell-based.

Data set [5] can be described thus: Passive permeability across MDCK cells. The class given is ADME, cell-based, Canis lupus familiaris. As to conditions: dog.
The target in data set [6] is Muscarinic acetylcholine receptor M3 (Homo sapiens) (UniProt P20309). The data set is described as follows: Activity at muscarinic M3 receptor expressing in CHONFAT cells assessed as potentiation of acetylcholine-induced calcium mobilization preincubated for 4 mins and measured 4 mins after acetylcholine stimulation by FLIPR assay. The class given is functional, cell-based.
Sequence of Muscarinic acetylcholine receptor M3 (Homo sapiens) (P20309 whole entry, looked up): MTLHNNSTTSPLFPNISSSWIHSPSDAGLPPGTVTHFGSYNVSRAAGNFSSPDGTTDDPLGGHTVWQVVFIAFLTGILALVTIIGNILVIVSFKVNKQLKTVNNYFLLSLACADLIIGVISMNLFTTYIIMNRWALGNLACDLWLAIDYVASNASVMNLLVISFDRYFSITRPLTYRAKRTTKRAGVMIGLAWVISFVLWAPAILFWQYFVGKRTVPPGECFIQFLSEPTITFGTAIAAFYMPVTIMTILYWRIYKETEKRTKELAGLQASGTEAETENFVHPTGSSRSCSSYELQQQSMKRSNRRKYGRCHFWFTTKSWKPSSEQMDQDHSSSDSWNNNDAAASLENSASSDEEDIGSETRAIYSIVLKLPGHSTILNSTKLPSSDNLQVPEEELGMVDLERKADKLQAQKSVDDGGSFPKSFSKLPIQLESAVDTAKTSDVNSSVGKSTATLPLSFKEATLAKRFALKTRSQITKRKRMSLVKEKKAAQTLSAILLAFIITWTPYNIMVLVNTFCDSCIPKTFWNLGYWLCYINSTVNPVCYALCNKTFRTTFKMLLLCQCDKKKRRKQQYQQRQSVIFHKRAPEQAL

Data set [7] in a line: Drug concentration in Sprague-Dawley rat CSF at 10 mg/kg, po after 2 hrs. The format is ADME, organism-based, Cerebrospinal fluid. As to conditions: read-out: Drug uptake. Set-up: dose 10 mg/kg, route oral.
Data set [8] can be described thus: Drug concentration in Sprague-Dawley rat brain at 10 mg/kg, po after 2 hrs. Set-up: dose 10 mg/kg, route oral. The format is ADME, organism-based. The note with it: read-out: Drug uptake.
Data set [9] can be described thus: Protein binding in rat plasma. The class given is ADME, cell-free. The note with it: read-out: PPB (converted).
In data set [10] the target is T3, Muscarinic acetylcholine receptor M2 (Homo sapiens) (UniProt P08172).
T3 sequence (whole entry): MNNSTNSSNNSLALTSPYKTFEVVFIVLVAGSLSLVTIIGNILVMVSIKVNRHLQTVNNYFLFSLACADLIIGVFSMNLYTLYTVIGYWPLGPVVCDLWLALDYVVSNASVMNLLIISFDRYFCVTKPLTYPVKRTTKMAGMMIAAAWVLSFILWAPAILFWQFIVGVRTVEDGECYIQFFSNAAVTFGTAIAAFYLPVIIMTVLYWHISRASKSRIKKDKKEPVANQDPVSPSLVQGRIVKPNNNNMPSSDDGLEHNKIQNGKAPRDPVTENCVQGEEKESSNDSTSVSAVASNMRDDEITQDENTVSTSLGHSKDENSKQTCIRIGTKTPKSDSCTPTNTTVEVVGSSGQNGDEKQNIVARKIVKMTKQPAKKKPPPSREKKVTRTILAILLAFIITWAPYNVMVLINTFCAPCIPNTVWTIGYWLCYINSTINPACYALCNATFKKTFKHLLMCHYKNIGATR
Briefly: Activity at muscarinic M2 receptor expressing in CHONFAT cells assessed as potentiation of acetylcholine-induced calcium mobilization preincubated for 4 mins and measured 4 mins after acetylcholine stimulation by FLIPR assay. The format is functional, cell-based.

The nature of data set [11]: Plasma concentration in Sprague-Dawley rat at 10 mg/kg, po after 2 hrs. The format is ADME, organism-based. Set-up: dose 10 mg/kg, route oral.
The next data set concerns the target MDR1a (P-gp, ABCB1) (Rattus norvegicus, UniProt P43245). Briefly: in vitro. As to conditions: not told.
Another data set has as its system Rattus norvegicus. Briefly: Ratio of drug level in CSF to unbound drug level in plasma of Sprague-Dawley rat at 10 mg/kg, po after 2 hrs. As to conditions: in vivo.
The target of the next data set is MDR1 (P-gp, ABCB1) (Homo sapiens, UniProt P08183). The data set is described as follows: in vitro. The note with it: not told.
Sequence of MDR1 (P-gp, ABCB1) (P08183 whole entry): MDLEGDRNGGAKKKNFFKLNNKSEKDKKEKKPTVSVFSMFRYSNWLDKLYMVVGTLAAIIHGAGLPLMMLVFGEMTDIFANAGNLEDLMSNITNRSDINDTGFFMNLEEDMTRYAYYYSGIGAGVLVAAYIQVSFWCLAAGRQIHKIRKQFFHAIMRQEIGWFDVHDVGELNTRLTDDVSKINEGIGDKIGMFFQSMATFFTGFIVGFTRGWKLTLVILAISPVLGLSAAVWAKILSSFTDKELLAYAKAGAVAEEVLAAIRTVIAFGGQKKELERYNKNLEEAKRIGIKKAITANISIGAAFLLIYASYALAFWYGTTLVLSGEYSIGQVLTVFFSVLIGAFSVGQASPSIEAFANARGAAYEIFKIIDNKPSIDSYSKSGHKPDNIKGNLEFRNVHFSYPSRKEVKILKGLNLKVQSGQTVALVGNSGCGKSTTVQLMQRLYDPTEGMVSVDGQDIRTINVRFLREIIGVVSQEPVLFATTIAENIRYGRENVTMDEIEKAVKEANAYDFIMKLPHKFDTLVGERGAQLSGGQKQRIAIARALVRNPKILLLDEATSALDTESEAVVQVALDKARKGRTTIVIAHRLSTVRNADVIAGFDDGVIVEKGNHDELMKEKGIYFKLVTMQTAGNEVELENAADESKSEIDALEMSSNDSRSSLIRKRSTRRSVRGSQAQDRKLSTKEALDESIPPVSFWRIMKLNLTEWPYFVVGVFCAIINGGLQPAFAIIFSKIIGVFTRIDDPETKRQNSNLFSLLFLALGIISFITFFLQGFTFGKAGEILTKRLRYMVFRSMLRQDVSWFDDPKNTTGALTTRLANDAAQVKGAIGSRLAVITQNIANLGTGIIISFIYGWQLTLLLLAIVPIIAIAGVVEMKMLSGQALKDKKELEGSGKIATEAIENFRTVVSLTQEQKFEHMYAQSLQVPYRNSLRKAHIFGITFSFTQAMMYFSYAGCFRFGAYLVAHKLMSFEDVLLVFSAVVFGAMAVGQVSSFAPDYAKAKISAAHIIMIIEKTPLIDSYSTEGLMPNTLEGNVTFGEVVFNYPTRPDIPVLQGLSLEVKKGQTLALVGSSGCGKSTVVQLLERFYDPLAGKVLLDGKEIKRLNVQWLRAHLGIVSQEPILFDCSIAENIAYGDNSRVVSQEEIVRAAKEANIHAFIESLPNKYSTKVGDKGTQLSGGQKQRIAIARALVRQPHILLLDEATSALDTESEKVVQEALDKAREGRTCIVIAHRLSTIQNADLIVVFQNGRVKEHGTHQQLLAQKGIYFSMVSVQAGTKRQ
Data set [12] deals with Voltage-gated inwardly rectifying potassium channel KCNH2 (Homo sapiens, UniProt Q12809). Briefly: Binding affinity to human ERG.
Sequence of Voltage-gated inwardly rectifying potassium channel KCNH2 (Q12809 whole entry): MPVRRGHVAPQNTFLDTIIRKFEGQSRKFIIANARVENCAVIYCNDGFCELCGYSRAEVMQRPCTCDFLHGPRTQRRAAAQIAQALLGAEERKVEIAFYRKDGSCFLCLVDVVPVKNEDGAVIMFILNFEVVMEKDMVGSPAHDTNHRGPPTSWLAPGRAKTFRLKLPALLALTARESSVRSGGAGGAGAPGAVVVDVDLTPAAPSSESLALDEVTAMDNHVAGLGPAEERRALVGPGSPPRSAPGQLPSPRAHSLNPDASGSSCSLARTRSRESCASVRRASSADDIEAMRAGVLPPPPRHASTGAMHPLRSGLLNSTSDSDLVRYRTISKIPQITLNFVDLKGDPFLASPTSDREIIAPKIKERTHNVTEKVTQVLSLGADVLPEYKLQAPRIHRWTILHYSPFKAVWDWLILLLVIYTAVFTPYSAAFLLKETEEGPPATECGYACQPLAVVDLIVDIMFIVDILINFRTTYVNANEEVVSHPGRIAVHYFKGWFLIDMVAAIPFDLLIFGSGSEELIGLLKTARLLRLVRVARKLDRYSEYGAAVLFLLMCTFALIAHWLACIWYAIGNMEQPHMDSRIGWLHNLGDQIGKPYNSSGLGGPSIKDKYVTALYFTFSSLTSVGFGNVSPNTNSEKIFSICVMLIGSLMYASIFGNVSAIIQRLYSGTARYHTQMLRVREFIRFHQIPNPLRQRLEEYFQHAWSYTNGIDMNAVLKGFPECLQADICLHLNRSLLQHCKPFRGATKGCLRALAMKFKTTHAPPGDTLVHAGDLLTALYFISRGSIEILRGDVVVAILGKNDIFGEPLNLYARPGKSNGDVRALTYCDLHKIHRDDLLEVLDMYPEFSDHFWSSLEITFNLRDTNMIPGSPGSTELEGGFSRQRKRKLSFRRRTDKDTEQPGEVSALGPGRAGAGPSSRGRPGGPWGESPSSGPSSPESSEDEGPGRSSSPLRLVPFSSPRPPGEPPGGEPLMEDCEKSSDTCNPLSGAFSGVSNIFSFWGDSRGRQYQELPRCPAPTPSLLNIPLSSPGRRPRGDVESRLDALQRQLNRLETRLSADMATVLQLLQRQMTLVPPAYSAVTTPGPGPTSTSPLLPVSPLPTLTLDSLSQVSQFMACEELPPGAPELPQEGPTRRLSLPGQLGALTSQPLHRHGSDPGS

Active and inactive are the calls of the source. No cut-off for these calls is given here. Some results are limits rather than exact numbers.

Sequence of MDR1a (P-gp, ABCB1) (P43245 whole entry): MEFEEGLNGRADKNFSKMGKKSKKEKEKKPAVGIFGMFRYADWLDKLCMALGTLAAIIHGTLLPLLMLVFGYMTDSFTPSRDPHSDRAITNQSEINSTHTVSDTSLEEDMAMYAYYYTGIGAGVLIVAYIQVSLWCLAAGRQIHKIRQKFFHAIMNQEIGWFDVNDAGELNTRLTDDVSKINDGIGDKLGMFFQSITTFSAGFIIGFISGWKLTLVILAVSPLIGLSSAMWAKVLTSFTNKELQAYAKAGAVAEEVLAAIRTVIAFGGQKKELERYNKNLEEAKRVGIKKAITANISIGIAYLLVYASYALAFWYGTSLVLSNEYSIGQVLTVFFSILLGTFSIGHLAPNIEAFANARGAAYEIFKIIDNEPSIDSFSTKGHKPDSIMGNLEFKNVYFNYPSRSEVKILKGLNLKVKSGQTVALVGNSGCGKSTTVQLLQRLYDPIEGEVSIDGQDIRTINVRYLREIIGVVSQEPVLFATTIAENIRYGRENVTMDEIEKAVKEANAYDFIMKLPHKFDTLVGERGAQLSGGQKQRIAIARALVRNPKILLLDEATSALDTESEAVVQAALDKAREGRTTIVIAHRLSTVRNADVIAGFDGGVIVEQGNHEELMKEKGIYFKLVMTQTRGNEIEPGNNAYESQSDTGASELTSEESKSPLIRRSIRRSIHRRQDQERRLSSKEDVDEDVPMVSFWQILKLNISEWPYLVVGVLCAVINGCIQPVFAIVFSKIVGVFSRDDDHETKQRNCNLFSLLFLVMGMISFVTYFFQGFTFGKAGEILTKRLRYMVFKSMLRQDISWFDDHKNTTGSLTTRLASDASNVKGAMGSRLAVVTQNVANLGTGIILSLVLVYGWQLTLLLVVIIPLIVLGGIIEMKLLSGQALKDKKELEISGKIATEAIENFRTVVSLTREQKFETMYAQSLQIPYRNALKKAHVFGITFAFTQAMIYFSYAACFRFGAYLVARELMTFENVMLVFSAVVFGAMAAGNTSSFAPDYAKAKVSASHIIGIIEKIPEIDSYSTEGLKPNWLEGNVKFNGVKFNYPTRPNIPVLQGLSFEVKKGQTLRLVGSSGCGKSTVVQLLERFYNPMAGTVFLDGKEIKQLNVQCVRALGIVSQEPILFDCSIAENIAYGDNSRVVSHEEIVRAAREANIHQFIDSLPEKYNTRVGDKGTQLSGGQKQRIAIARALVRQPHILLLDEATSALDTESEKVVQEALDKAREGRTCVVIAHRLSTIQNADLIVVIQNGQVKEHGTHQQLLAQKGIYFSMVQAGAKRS
Description for MDR1 (P-gp, ABCB1): Efflux ratio assessed as human MDR1-mediated directional transport ratio from basolateral to apical over apical to basolateral by cell based assay
Description for MDR1a (P-gp, ABCB1): Efflux ratio assessed as rat MDR1a-mediated directional transport ratio from basolateral to apical over apical to basolateral by cell based assay

As for `O=C(N[C@H]1CCCC[C@@H]1O)c1cc(CN2CCN(c3cc4scnc4cn3)CC2)c2ccccn2c1=O`, the Kp at 2 h in data set [1] is 0.19. For the same molecule, the outcome in data set [2], in [6] and in data set [10] was inactive. Moreover, the fraction unbound in data set [3] was 0.082; in [9], 0.051. Also, the IP in data set [4] is 22 nM. Besides, the Papp in data set [5] amounted to 37 ×10⁻⁶ cm/s. The concentration at 2 h in data set [7] was determined as 4 nM; in data set [8], 77 nM; in [11] it was 375 nM.
As for `Cc1ccc(N2CCN(Cc3cc(C(=O)N[C@H]4CCCC[C@@H]4O)c(=O)n4ccccc34)CC2)nc1`, the outcome in data set [2], in [6] and in data set [10] was inactive. Besides, the fraction unbound is 0.399 in data set [3] and 0.287 in data set [9]. In addition, the IP in data set [4] is 174 nM. The Papp in [5] stood at 23 ×10⁻⁶ cm/s.
Turning to `N#CC1(c2ccccn2)CCN(Cc2cc(C(=O)N[C@H]3CCCC[C@@H]3F)c(=O)n3ccccc23)CC1`, the efflux ratio at MDR1a (P-gp, ABCB1) was 3.4; at MDR1 (P-gp, ABCB1), 1.9. Moreover, the Kp at 2 h in [1] stood at 0.28. In addition, the result in [2], in data set [6] and in data set [10] was inactive. Moreover, in the data set on Rattus norvegicus, the Ratio came to 0.33. In addition, the values for the fraction unbound in data set [3] and in [9] were 0.185 and 0.073, respectively. The IP in [4] was found to be 147 nM. Besides, in data set [5], the apparent permeability coefficient (Papp) came to 26 ×10⁻⁶ cm/s. Moreover, the concentration at 2 h in data set [7] stood at 27 nM; in data set [8], 280 nM; in [11] it was 1120 nM.
With `N#Cc1ccc(N2CCN(Cc3cc(C(=O)N[C@H]4CCCC[C@@H]4O)c(=O)n4ccccc34)CC2)cc1`, the efflux ratio on MDR1a (P-gp, ABCB1) was 4.7; at MDR1 (P-gp, ABCB1) it was 1.1. The result in data set [2], in data set [6] and in data set [10] was inactive. The fraction unbound in data set [3] is 0.095; in data set [9], 0.061. The IP in data set [4] came out at 244 nM. The same molecule had a Papp in data set [5] of 30 ×10⁻⁶ cm/s. Also, in [12], the IC50 was determined as 390 nM.
As to `N#CC1(c2ccccn2)CCN(Cc2cc(C(N)=O)c(=O)n3ccccc23)CC1`, the result in [2], in data set [6] and in data set [10] was inactive. For the same molecule, in data set [4], the IP stood at 1900 nM.
Regarding `N#CC1(c2ccccn2)CCN(Cc2cc(C(=O)NC3CCCCC3)c(=O)n3ccccc23)CC1`, the efflux ratio was found to be 2 on MDR1a (P-gp, ABCB1) and 1.6 on MDR1 (P-gp, ABCB1). In addition, the result in data set [2], in [6] and in data set [10] was inactive. Moreover, the figures for the fraction unbound in data set [3] and in [9] were 0.066 and 0.044, respectively. The IP in data set [4] stood at 253 nM. The same molecule had a Papp in [5] of 28 ×10⁻⁶ cm/s.
Consider `N#CC1(c2ccccn2)CCN(Cc2cc(C(=O)Nc3ccccn3)c(=O)n3ccccc23)CC1`, for which the result in [2], in data set [6] and in data set [10] was inactive. The IP in data set [4] was 640 nM.
As to `C[C@@]1(NC(=O)c2cc(CN3CCC(C#N)(c4ccccn4)CC3)c3ccccn3c2=O)CCCC[C@H]1O`, the efflux ratio worked out at 12 on MDR1a (P-gp, ABCB1) and 10 at MDR1 (P-gp, ABCB1). The result in data set [2], in data set [6] and in data set [10] was inactive. Moreover, the IP in data set [4] is greater than 20000 nM. In [5], this molecule displayed a Papp of 28 ×10⁻⁶ cm/s.
Turning to `Cc1ccccc1NC(=O)c1cc(CN2CCC(C#N)(c3ccccn3)CC2)c2ccccn2c1=O`, the outcome in data set [2], in data set [6] and in data set [10] was inactive. In data set [4], the IP came to 2400 nM.
For `N#CC1(c2ccccc2)CCN(Cc2cc(C(=O)N[C@H]3CCCC[C@@H]3O)c(=O)n3ccccc23)CC1`, the efflux ratio at MDR1a (P-gp, ABCB1) amounted to 3.3; on MDR1 (P-gp, ABCB1), 2.3. The Kp at 2 h in [1] was 0.52. The outcome in data set [2], in data set [6] and in [10] was inactive. Further, the Ratio in the data set on Rattus norvegicus is given as 0.58. The fraction unbound in data set [3] is 0.148; in data set [9] it was 0.031. In addition, the IP in data set [4] came to 45 nM. Also, the apparent permeability (Papp) in data set [5] came to 32 ×10⁻⁶ cm/s. In addition, the concentration at 2 h in [7] came to 29 nM; in data set [8], 896 nM; in data set [11], 1610 nM. The same molecule came in with a half-maximal inhibitory concentration (IC50) in data set [12] of 5100 nM.
`N#CC1(c2ccccn2)CCN(Cc2cc(C(=O)N[C@H]3CCCC[C@@H]3O)c(=O)n3ccccc23)CC1`: the result in data set [2], in data set [6] and in data set [10] was inactive. The fraction unbound was 0.48 in data set [3] and 0.14 in [9]. In data set [4], the IP worked out at 31 nM. The apparent permeability (Papp) in data set [5] was 29 ×10⁻⁶ cm/s.
For `N#CC1(c2ccccn2)CCN(Cc2cc(C(=O)N3CCCc4ccccc43)c(=O)n3ccccc23)CC1`, the outcome in data set [2], in data set [6] and in [10] was inactive. In addition, the IP in [4] amounted to 7800 nM.
Take `N#CC1(c2ccccn2)CCN(Cc2cc(C(=O)NC3CCCCC3(F)F)c(=O)n3ccccc23)CC1` (configuration not stated): the efflux ratio turned out to be 3.4 at MDR1a (P-gp, ABCB1) and 1.7 at MDR1 (P-gp, ABCB1). The result in data set [2], in [6] and in data set [10] was inactive. For the same molecule, the fraction unbound in data set [3] is 0.105; in [9] it was 0.04. The IP in data set [4] amounted to 205 nM. Also, the Papp in [5] turned out to be 29 ×10⁻⁶ cm/s.
In the case of `C[C@H]1CCCC[C@@H]1NC(=O)c1cc(CN2CCC(C#N)(c3ccccn3)CC2)c2ccccn2c1=O`, the result in data set [2], in data set [6] and in [10] was inactive. Moreover, the IP in data set [4] is 190 nM.
Consider `CS[C@H]1CCCC[C@@H]1NC(=O)c1cc(CN2CCC(C#N)(c3ccccn3)CC2)c2ccccn2c1=O`, for which the result in [2], in data set [6] and in [10] was inactive. Further, in [4], the IP stood at 177 nM.
Regarding `Cn1cc(NC(=O)c2cc(CN3CCC(C#N)(c4ccccn4)CC3)c3ccccn3c2=O)nn1`, the outcome in data set [2], in data set [6] and in data set [10] was inactive. Besides, the IP in data set [4] was determined as 1300 nM.

For orientation: Papp means a coefficient for how fast a substance crosses the barrier. The term efflux ratio denotes a quotient of directional permeabilities that is used to spot active efflux. By IC50 is commonly meant the concentration that gives 50% inhibition. The low end stands for greater potency in that assay, the high end for weaker potency in that assay.

For the origin of these results see ChEMBL document CHEMBL2203078, “Identification of amides as carboxylic Acid surrogates for quinolizidinone-based m1 positive allosteric modulators” (ACS Med Chem Lett, 2012).
